Experiment [1] deals with T1, Retinoic acid receptor alpha (Homo sapiens) (UniProt P10276).
T1 sequence (whole entry): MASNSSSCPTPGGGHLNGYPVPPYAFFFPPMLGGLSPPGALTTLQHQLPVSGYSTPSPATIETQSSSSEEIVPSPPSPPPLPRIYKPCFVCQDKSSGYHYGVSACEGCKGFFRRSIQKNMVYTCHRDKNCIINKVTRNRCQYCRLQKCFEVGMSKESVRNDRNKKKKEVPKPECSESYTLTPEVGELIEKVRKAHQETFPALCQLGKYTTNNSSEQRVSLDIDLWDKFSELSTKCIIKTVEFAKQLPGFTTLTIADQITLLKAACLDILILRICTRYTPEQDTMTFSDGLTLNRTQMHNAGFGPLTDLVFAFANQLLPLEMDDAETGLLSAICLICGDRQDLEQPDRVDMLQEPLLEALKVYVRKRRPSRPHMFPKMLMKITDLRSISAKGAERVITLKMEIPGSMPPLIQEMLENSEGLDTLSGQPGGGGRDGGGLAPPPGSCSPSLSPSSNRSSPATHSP
The experiment in a line: Percent transcriptional activation relative to ATRA in CV-1 cells expressing Retinoic acid receptor RAR alpha. It counts as functional, cell-based.

Experiment [2] addresses T2, Retinoic acid receptor RXR-gamma (Homo sapiens, UniProt P48443).
T2 sequence (P48443 whole entry): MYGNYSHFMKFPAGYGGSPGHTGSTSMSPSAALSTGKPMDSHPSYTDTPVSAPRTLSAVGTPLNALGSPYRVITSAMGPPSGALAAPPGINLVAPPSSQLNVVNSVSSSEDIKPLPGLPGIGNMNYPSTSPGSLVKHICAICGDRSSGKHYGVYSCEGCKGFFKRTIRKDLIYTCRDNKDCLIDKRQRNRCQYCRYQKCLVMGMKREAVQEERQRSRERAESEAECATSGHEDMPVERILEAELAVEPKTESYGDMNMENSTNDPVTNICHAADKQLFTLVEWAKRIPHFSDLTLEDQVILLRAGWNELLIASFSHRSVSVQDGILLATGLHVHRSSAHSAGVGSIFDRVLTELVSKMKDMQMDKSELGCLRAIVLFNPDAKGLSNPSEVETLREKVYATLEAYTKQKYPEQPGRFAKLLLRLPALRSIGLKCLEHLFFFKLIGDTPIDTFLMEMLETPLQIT
The experiment in a line: Transcriptional activity was evaluated in CV-1 cells transfected with expression vector for Retinoic acid receptor RXR-gamma. It counts as functional, cell-based.

For experiment [3], the target named is T2, Retinoic acid receptor RXR-gamma. The experiment in a line: Binding affinity towards recombinantly expressed Retinoic acid receptor RXR-gamma in baculoviral system, by using 5 nM [3H]targretin in a competitive binding assay.
Experiment [4] addresses T3, Retinoic acid receptor RXR-beta (Homo sapiens) (UniProt P28702).
T3 sequence (whole entry): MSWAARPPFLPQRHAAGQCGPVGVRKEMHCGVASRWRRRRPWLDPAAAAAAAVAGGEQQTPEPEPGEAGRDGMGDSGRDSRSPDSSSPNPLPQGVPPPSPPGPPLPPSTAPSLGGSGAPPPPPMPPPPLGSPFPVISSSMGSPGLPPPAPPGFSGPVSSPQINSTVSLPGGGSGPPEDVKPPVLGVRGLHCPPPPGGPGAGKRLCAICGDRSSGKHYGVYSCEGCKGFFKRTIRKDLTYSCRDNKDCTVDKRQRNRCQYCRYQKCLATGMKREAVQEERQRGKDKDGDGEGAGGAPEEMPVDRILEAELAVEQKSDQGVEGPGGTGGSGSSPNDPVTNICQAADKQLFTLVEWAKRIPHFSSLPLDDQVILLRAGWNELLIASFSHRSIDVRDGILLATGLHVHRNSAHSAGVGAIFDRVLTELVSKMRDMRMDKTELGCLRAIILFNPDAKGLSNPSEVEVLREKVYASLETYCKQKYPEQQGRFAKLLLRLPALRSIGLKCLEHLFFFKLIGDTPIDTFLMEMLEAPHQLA
The experiment in a line: Percent transcriptional activation relative to ATRA in CV-1 cells expressing Retinoid X receptor RXR beta. The format is functional, cell-based.

Experiment [5] addresses T4, Retinoic acid receptor RXR-beta (Homo sapiens, UniProt P28702).
T4 sequence (P28702 whole entry): T3 sequence (whole entry)
The experiment in a line: Binding affinity towards recombinantly expressed Retinoic acid receptor RXR-beta in baculoviral system, by using 5 nM [3H]targretin in a competitive binding assay.

Experiment [6] deals with T5, Retinoic acid receptor gamma (Homo sapiens) (UniProt P13631).
T5 sequence (whole entry): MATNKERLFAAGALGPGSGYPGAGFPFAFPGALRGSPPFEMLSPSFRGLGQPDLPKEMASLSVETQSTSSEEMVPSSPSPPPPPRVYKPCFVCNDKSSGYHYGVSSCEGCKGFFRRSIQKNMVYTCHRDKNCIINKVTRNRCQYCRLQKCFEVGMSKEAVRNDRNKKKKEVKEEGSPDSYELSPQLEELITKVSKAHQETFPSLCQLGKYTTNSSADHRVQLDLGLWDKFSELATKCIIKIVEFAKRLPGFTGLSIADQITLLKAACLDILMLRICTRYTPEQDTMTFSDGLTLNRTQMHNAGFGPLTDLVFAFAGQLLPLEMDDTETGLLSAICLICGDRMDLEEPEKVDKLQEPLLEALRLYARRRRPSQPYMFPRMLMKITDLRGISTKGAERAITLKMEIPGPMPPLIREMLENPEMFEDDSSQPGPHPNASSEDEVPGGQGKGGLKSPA
The experiment in a line: Percent transcriptional activation relative to ATRA in CV-1 cells expressing Retinoic acid receptor RAR gamma. It counts as functional, cell-based.

Experiment [7] concerns the target T4, Retinoic acid receptor RXR-beta. The experiment in a line: Transcriptional activity was evaluated in CV-1 cells transfected with expression vector for Retinoic acid receptor RXR-beta. The format is functional, cell-based.
The target of experiment [8] is T6, Retinoic acid receptor beta (Homo sapiens) (UniProt P10826).
T6 sequence (whole entry): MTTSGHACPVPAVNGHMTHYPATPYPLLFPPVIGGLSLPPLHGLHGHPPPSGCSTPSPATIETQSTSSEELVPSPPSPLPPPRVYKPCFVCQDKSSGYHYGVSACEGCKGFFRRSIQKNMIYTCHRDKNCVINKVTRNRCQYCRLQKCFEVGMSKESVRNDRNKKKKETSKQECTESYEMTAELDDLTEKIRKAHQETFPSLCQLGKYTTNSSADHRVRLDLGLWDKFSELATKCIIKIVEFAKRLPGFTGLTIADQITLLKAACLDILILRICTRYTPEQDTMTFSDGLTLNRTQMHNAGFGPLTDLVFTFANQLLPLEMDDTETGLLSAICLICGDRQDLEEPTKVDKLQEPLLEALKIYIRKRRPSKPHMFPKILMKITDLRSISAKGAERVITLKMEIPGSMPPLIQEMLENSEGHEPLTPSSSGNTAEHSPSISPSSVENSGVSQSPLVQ
The experiment in a line: Percent transcriptional activation relative to ATRA in CV-1 cells expressing Retinoic acid receptor RAR beta. The format is functional, cell-based.

The target of experiment [9] is T7, Retinoic acid receptor RXR-alpha (Homo sapiens, UniProt P19793).
T7 sequence (P19793 whole entry): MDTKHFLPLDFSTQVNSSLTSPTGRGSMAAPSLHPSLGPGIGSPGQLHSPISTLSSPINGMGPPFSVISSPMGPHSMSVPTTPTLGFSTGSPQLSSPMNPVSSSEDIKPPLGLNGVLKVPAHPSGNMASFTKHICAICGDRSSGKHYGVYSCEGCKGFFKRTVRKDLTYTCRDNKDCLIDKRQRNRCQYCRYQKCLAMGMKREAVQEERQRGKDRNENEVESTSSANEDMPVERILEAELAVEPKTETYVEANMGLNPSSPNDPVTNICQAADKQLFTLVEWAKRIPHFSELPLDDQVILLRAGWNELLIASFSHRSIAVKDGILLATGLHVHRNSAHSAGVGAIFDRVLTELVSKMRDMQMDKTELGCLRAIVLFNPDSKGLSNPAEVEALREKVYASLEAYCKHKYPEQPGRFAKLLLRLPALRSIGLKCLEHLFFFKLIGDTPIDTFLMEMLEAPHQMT
The experiment in a line: Transcriptional activity was evaluated in CV-1 cells transfected with expression vector for Retinoic acid receptor RXR-alpha. It counts as functional, cell-based.

In experiment [10] the target is T7, Retinoic acid receptor RXR-alpha. The experiment in a line: Binding affinity towards recombinantly expressed Retinoic acid receptor RXR-alpha in baculoviral system, by using 5 nM [3H]targretin in a competitive binding assay.

In general, EC50 refers to the concentration giving half of the maximal effect. Read a high EC50 as a need for much substance. A word on the Ki: it is the dissociation constant of the complex between target and ligand, obtained from inhibition or displacement. For `Cc1cc2c(cc1/C(=N/O)c1ccc(C(=O)O)cc1)C(C)(C)CCC2(C)C`, the Efficacy in experiment [1] was 6%; in experiment [4], 81%; in [6], 13%; in [8] it was 10%. Also, the EC50 in experiment [2] amounted to 7 nM; in experiment [7] it was 14 nM. Moreover, the inhibition constant (Ki) in [3] and in experiment [5] was 5 nM in each case.
Regarding `Cc1cc2c(cc1/C(=N\O)c1ccc(C(=O)O)cc1)C(C)(C)CCC2(C)C`, the EC50 in experiment [2] was 34 nM; in experiment [7], 165 nM. In addition, the inhibition constant (Ki) came to 209 nM in experiment [3] and 120 nM in experiment [5].
For `CCCCO/N=C(\c1ccc(C(=O)O)cc1)c1cc2c(cc1C)C(C)(C)CCC2(C)C`, the EC50 stood at 99 nM in experiment [2], 157 nM in experiment [7] and 86 nM in experiment [9]. The Ki in experiment [3] is 224 nM; in experiment [5], 283 nM; in experiment [10] it was 177 nM.
As for `CC1(C)CCC(C)(C)c2cc(/C(=N/O)c3ccc(C(=O)O)cc3)c(Br)cc21`, the figures for the EC50 in experiment [2], in [7] and in [9] were 26 nM, 32 nM and 27 nM, respectively. Also, the Ki in experiment [3] turned out to be 57 nM; in experiment [5], 6 nM; in experiment [10] it was 12 nM.
For `CO/N=C(/c1ccc(C(=O)O)cc1)c1ccc2c(c1)C(C)(C)CCC2(C)C`, the figures for the EC50 in experiment [2], in [7] and in experiment [9] were 206 nM, 207 nM and 253 nM, respectively. Besides, the results for the Ki in experiment [3], in [5] and in experiment [10] were 558 nM, 363 nM and > 1000 nM, respectively.
As for `Cc1cc2c(cc1/C(=N/OCCN)c1ccc(C(=O)O)cc1)C(C)(C)CCC2(C)C`, the EC50 in experiment [2] amounted to 306 nM; in [7] it was 61 nM; in experiment [9], 350 nM. For the same compound, the Ki in experiment [3], in experiment [5] and in experiment [10] was > 1000 nM in each case.
For the compound `CCO/N=C(/c1ccc(C(=O)O)cc1)c1cc2c(cc1C)C(C)(C)CCC2(C)C`, the EC50 in experiment [2], in [7] and in experiment [9] was > 10000 nM throughout. For the same compound, the inhibition constant (Ki) was 467 nM in experiment [3], > 1000 nM in [5] and 620 nM in experiment [10].
Take `Cc1cc2c(cc1/C(=N\OC(C)(C)C)c1ccc(C(=O)O)cc1)C(C)(C)CCC2(C)C`: the EC50 in experiment [2], in experiment [7] and in experiment [9] was > 10000 nM in each case. For the same compound, the Ki in experiment [3], in experiment [5] and in experiment [10] was > 1000 nM each time.
For the compound `CCO/N=C(\c1ccc(C(=O)O)cc1)c1cc2c(cc1C)C(C)(C)CCC2(C)C`, the EC50 in [2] worked out at 9 nM; in [7], 12 nM; in experiment [9], 5 nM. Besides, the Ki is 42 nM in experiment [3], 58 nM in [5] and 26 nM in [10].
With `CO/N=C(/c1ccc(C(=O)O)cc1)c1cc2c(cc1C)C(C)(C)CCC2(C)C`, the EC50 is 254 nM in [2], 377 nM in experiment [7] and 384 nM in experiment [9]. Also, the inhibition constant Ki in experiment [3] is 238 nM; in [5], > 1000 nM; in experiment [10] it was 394 nM.
On to `C=CCO/N=C(\c1ccc(C(=O)O)cc1)c1cc2c(cc1C)C(C)(C)CCC2(C)C`, for which the EC50 came out at 7 nM in experiment [2], 18 nM in [7] and 6 nM in experiment [9]. For the same compound, the figures for the Ki in [3], in [5] and in experiment [10] were 80 nM, 15 nM and 7 nM, respectively.
In the case of `Cc1cc2c(cc1/C(=N/OCC(=O)O)c1ccc(C(=O)O)cc1)C(C)(C)CCC2(C)C`, the values for the EC50 in [2], in [7] and in experiment [9] were 1380 nM, 1380 nM and 713 nM, respectively. Also, the Ki in experiment [3], in experiment [5] and in experiment [10] was > 1000 nM in each case.
As to `CC1(C)CCC(C)(C)c2cc(/C(=N/O)c3ccc(C(=O)O)cc3)ccc21`, the EC50 in experiment [2] was 2890 nM; in experiment [7], > 10000 nM; in experiment [9], 2960 nM. Also, the results for the Ki in [3], in [5] and in [10] were 5050 nM, 3360 nM and 4230 nM, respectively.
For the compound `CCCO/N=C(\c1ccc(C(=O)O)cc1)c1cc2c(cc1C)C(C)(C)CCC2(C)C`, the EC50 turned out to be 28 nM in [2], 37 nM in experiment [7] and 32 nM in [9]. The Ki was 57 nM in [3], 61 nM in experiment [5] and 6 nM in experiment [10].
Regarding `Cc1cc2c(cc1/C(=N/OC(C)(C)C)c1ccc(C(=O)O)cc1)C(C)(C)CCC2(C)C`, the EC50 in experiment [2], in experiment [7] and in experiment [9] was > 10000 nM in each case. Moreover, the Ki in experiment [3] was found to be 445 nM; in experiment [5] it was 623 nM; in [10], 484 nM.
Regarding `Cc1cc2c(cc1/C(=N/OCC#N)c1ccc(C(=O)O)cc1)C(C)(C)CCC2(C)C`, the EC50 came to 11 nM in experiment [2], 25 nM in experiment [7] and 12 nM in [9]. Besides, the inhibitory constant (Ki) in experiment [3] was determined as 14 nM; in experiment [5] it was 14 nM; in [10], 11 nM.

The record behind these values is ChEMBL document CHEMBL1132591, “Synthesis of retinoid X receptor-specific ligands that are potent inducers of adipogenesis in 3T3-L1 cells” (J Med Chem, 1999).
